Common to all, as to type: cell-based
Assay [1] deals with T1, human receptor PPARγ-Gal4 (Homo sapiens, UniProt P37231).
T1 sequence (P37231 238-505 limits assumed): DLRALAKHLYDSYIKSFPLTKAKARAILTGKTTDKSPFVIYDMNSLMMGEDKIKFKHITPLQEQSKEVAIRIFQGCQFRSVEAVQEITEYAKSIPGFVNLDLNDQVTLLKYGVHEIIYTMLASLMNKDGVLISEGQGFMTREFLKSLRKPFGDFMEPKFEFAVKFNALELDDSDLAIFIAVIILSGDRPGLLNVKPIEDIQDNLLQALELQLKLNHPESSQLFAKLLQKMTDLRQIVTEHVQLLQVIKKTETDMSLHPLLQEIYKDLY
Nature of the assay: PPAR-Gal4 transactivation test in transfected Cos-7 cells (luciferase reporter), PPARγ. To be noted: for EC50: Cos-7 cells, overnight incubation; for Human receptor PPARγ Top: induction as percentage of reference rosiglitazone at 10^-6 M (=100%). The procedure: (§1) A transactivation test was used as the primary screening test. Cos-7 cells were transfected with a plasmid expressing a chimera of a murine or human receptor PPAR-Gal4 (receptor PPARα-Gal4 or PPARδ-Gal4 or PPARγ-Gal4) and of a reporter plasmid 5Gal4pGL3 TK Luc. The transfections were carried out using a chemical agent (Jet PEI). Transfected cells were distributed into 384 well plates and allowed to stand for 24 hours. At 24 hours the culture medium was changed. The products to be tested were added (final concentration between 10^−4 and 3.10^−10 M) to the culture medium. After overnight incubation, luciferase expression was measured after addition of “SteadyGlo” according to the manufacturer's instructions (Promega).
(§2) Fenofibric acid at 10^−5 M (PPARα agonist), GW501516 at 10^−8 M (PPARδ agonist) and rosiglitazone at 10^−6 M (PPARγ agonist) were used as references.
(§3) The results are expressed as the induction rate (number of times) compared to the basal level as a percentage of activity of the adequate reference (reference=100%). Effect-concentration curves and EC50 were calculated using Assay Explorer (MDL) software.

Assay [2] concerns the target T2, human receptor PPARδ-Gal4 (Homo sapiens, UniProt Q03181).
T2 sequence (Q03181 171-441 limits assumed): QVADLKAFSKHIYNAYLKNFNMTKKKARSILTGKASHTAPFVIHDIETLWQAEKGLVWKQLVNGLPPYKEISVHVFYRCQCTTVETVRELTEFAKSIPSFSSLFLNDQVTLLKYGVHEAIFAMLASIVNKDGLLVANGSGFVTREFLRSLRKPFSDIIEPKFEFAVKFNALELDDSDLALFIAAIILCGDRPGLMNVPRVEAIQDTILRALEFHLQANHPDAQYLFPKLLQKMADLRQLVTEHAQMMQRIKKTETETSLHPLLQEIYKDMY
Nature of the assay: PPAR-Gal4 transactivation test in transfected Cos-7 cells (luciferase reporter), PPARδ. To be noted: for EC50: Cos-7 cells, overnight incubation; for Human receptor PPARδ Top: induction as percentage of reference GW501516 at 10^-8 M (=100%). The procedure:
as §1, §2, §3

Assay [3] has as its target T3, human receptor PPARα-Gal4 (Homo sapiens, UniProt Q07869).
T3 sequence (Q07869 200-468 limits assumed): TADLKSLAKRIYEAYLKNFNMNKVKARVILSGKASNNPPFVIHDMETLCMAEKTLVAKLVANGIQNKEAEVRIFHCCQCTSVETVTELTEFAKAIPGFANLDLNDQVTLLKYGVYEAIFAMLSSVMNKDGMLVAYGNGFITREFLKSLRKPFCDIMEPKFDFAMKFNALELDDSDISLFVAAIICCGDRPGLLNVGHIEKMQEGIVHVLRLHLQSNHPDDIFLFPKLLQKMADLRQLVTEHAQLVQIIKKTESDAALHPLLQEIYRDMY
Briefly: PPAR-Gal4 transactivation test in transfected Cos-7 cells (luciferase reporter), PPARα. The note with it: for EC50: Cos-7 cells, overnight incubation; for Human receptor PPARα Top: induction as percentage of reference fenofibric acid at 10^-5 M (=100%). The procedure:
as §1, §2, §3

We go through three compounds from US20210300913A1, “DEUTERATED DERIVATIVES OF LANIFIBRANOR” (lNVENTlVA, priority 2018, published 2021).

Consider `O=C(O)CCCc1cc2cc(Cl)ccc2n1S(=O)(=O)c1ccc2ncsc2c1` [Example 1], for which the figures for the EC50 in assay [1], in assay [2] and in assay [3] were 85 nM, 952 nM and 2320 nM, respectively.

Take `[2H]c1nc2ccc(S(=O)(=O)n3c(CCCC(=O)O)cc4cc(Cl)ccc43)cc2s1` [Example 1]: the “Human receptor PPARγ Top” value in assay [1] is 53%. Further, the “Human receptor PPARδ Top” value in assay [2] came to 80%. The “Human receptor PPARα Top” value in assay [3] is recorded as 67%.

`[2H]C([2H])(C(=O)O)C([2H])([2H])C([2H])([2H])c1cc2cc(Cl)ccc2n1S(=O)(=O)c1ccc2ncsc2c1` [Example 2, 4-[1-(1,3-Benzothiazol-6-ylsulfonyl)-5-chloro-indol-2-yl]-2,2,3,3,4,4-hexadeuteriobutanoic acid]: in assay [1], the EC50 is 136 nM and the “Human receptor PPARγ Top” value was 50%. Besides, in assay [2], it took 1180 nM to reach a half-maximal effect (EC50) and the “Human receptor PPARδ Top” value came out at 80%. In assay [3], the EC50 was determined as 2280 nM and the “Human receptor PPARα Top” value is given as 62%.
